Reference: patent US20250205191A1, “R(-)-MDMA COMPOSITIONS AND METHODS OF TREATMENT” (EmpathBio, Inc., priority 2023, published 2025)

Tests used:
[1] = molecular target: T1, human 5-HT2A receptor (Homo sapiens, UniProt P28223); assay: 5-HT2A agonism, inositol monophosphate accumulation (HTRF), CHO-K1 recombinant cells; type: cell-based
T1 construct: expressed in transfected cells; host or cells: CHO-K1

[2] = tested on: healthy volunteers; assay: Phase 1 Spoken Intensity Rating Scale (SIRS); type: in vivo, human
Protocol: Beyond 8 hours postdose, mean SIRS scores remained ≤0.5 in all cohorts.

[3] = tested on: healthy volunteers; assay: Facial Emotion Recognition Test (FERT); type: in vivo, human
[4] = molecular target: T2, human 5-HT2C (non-edited) receptor (Homo sapiens, UniProt P28335); assay: 5-HT2C (non-edited) agonism, inositol monophosphate accumulation (HTRF), CHO-K1 recombinant cells; type: cell-based
T2 construct: expressed in transfected cells; host or cells: CHO-K1
T2 sequence (P28335 33-458): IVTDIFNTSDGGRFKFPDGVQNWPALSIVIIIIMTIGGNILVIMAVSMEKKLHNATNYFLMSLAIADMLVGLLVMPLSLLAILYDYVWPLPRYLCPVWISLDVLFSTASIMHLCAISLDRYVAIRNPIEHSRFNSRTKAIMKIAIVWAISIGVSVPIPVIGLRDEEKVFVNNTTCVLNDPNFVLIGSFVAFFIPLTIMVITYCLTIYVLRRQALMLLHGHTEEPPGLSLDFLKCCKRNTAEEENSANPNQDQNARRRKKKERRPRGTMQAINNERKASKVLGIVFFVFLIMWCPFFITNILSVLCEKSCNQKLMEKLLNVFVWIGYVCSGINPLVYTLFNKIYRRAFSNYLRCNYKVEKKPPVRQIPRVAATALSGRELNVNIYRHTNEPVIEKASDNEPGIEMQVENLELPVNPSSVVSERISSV

[5] = tested on: healthy volunteers; assay: 11-Dimensions-Altered States of Consciousness (11D-ASC); type: in vivo, human
[6] = tested on: healthy volunteers; assay: Phase 1 Emotional Breakthrough Inventory (EBI); type: in vivo, human
Description: Self-reported Emotional Breakthrough Inventory (EBI) include facing emotionally difficult feelings that are usually pushed aside; experiencing resolution of a personal conflict or trauma; ability to explore challenging emotions and memories; having an emotional breakthrough; achieving a sense of closure on an emotional problem; and achieving emotional release followed by sense of relief. Emotional breakthrough is an important and distinct component of the acute psychedelic experience that appears to be a key mediator (state predictor) of subsequent longer-term psychological changes in psychiatric populations. (Carhartt-Harris, et al., Trial of Psilocybin versus Escitalopram for Depression, N Engl J Med 2021; 384:1402-1411).

[7] = Phase 1 clinical study, plasma pharmacokinetics; settings: for AUC0-t / Cmax / t1/2: mean (SD); for Tmax: median (minimum, maximum)
[8] = molecular target: T3, human 5-HT2C (edited) receptor (Homo sapiens, UniProt P28335); assay: 5-HT2C (edited) agonism, inositol monophosphate accumulation (HTRF), CHO-K1 recombinant cells; type: cell-based
T3 sequence (P28335 33-458): T2 sequence (P28335 33-458)

[9] = plasma analyte after oral 125 mg R(−)-MDMA, Day 9
[10] = plasma analyte after single oral 75 mg R(−)-MDMA, Day 1
[11] = plasma analyte after single oral 125 mg R(−)-MDMA, Day 1
[12] = plasma analyte after single oral 175 mg R(−)-MDMA, Day 1
[13] = plasma analyte after single oral 225 mg R(−)-MDMA, Day 1

T1 sequence (P28223 whole entry): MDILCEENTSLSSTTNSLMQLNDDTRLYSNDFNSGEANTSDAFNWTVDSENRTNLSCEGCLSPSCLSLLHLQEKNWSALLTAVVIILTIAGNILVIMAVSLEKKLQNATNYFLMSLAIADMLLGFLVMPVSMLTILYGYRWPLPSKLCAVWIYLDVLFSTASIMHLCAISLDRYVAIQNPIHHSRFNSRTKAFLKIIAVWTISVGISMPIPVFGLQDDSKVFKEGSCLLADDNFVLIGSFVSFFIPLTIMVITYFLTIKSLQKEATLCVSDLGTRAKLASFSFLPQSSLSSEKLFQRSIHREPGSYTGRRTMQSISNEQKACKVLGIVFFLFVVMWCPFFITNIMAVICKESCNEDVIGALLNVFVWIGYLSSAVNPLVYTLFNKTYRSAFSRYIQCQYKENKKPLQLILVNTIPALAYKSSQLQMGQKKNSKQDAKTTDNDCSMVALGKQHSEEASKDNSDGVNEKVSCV

SMILES: CN[C@H](C)Cc1ccc2c(c1)OCO2 [R(−)-MDMA, R(−)-3,4-methylenedioxymethamphetamine]
- agonism in words ([1]; 5-HT2A receptors): moderate potency partial agonism
- EC50 ([1]; 5-HT2A, CHO-K1, IP accumulation): 3.34 µM
- Efficacy (% of a-Me-5-HT response) ([1]; 5-HT2A, relative to α-Me-5-HT at its EC100): 69.3%
- SIRS dose response ([2]; 75-225 mg oral): strong dose response
- mean SIRS scores ([2]; all cohorts, beyond 8 hours postdose): ≤ 0.5
- mean SIRS scores ([2]; fasted state, each cohort, 1 to 2 hours postdose): small nominal increases from Baseline
- reduction in the recognition of angry (threatening) faces ([3]; 75 mg): 13.2%
- reduction in the recognition of angry (threatening) faces ([3]; 125 mg): 12.3%
- reduction in the recognition of angry (threatening) faces ([3]; 175 mg): 8.8%
- misclassifications to happy faces, change from baseline (mean) ([3]; 225 mg): +1.16
- reduction in the recognition of angry (threatening) faces ([3]; 225 mg): 12.4%
- agonism in words ([4]; 5-HT2C (non-edited) receptors): high potency full agonism
- Efficacy (% of a-Me-5-HT response) ([4]; 5-HT2C (non-edited), relative to α-Me-5-HT at its EC100): 97.9%
- 11D-ASC changed meaning of percepts ([5]; 225 mg dose group vs comparators of FIG. 11): strongest
- 11D-ASC response profile ([5]; 75-225 mg oral): psychedelic-like response
- EBI, acute experience of emotional breakthroughs ([6]; 225 mg vs placebo): significantly higher
- EBI, acute experience of emotional breakthroughs, dose response ([6]; 75-225 mg): dose-dependent increase
- food effect ([7]; 125 mg fasted vs fed): No food effect
- mean plasma concentration at final PK assessments ([7]; 30 hours postdose): remained above the lower limit of quantitation
- AUC0-t [7, 9]: 7229.6028 (1863.6711) h · ng/mL
- Cmax [7, 9]: 455.4850 (65.0461) ng/mL
- t1/2 [7, 9]: 13.3444 (3.5309) hr
- Tmax [7, 9]: 2.758 (2.08, 4.02) hr
- AUC0-t [7, 10]: 3976.7452 (1350.4178) h · ng/mL
- Cmax [7, 10]: 275.8217 (90.7390) ng/mL
- t1/2 [7, 10]: 9.2622 (2.5227) hr
- Tmax [7, 10]: 3.000 (2.02, 3.00) hr
- AUC0-t [7, 11]: 7135.8809 (1245.2963) h · ng/mL
- Cmax [7, 11]: 425.2550 (62.4569) ng/mL
- t1/2 [7, 11]: 11.8615 (1.9947) hr
- Tmax [7, 11]: 3.517 (1.50, 4.02) hr
- AUC0-t [7, 12]: 10007.8882 (2324.8851) h · ng/mL
- Cmax [7, 12]: 617.3440 (158.9596) ng/mL
- t1/2 [7, 12]: 12.2009 (1.4988) hr
- Tmax [7, 12]: 4.000 (3.00, 6.02) hr
- AUC0-t [7, 13]: 14453.1811 (3684.7488) h · ng/mL
- Cmax [7, 13]: 828.6450 (213.1377) ng/mL
- t1/2 [7, 13]: 14.0772 (3.2340) hr
- Tmax [7, 13]: 5.000 (3.00, 6.02) hr
- agonism in words ([8]; 5-HT2C (edited) receptors): high potency full agonism
- Efficacy (% of a-Me-5-HT response) ([8]; 5-HT2C (edited), relative to α-Me-5-HT at its EC100): 96.6%
